Data on eight compounds can be found in patent US20220324835A1 (Nurix Therapeutics, Inc., priority 2018, published 2022).

The structures appear in SMILES notation. Bounds are passed on as bounds.

The test system of assay [1] is T-cell. The experiment in a line: IL-2 secretion from T-cells co-stimulated with anti-CD3 and anti-CD28 antibody (Biological Example 2). It is filed as cell-based, human. Particulars: Homo sapiens, T-cell, fold change over baseline, primary human total T-cells, read-out: IL-2 secretion Anti-CD3/Anti-CD28 stimulation; for fold induction at 0.3 µM: 0.3 μM Cbl-b inhibitor; for fold induction at 1 µM: 1 μM Cbl-b inhibitor; for fold induction at 4 µM: 4 μM Cbl-b inhibitor. From the text:
(§1) Methods for experimentally determining increased T-cell activation, increased T-cell proliferation, decreased T-cell exhaustion, and/or decreased T-cell tolerance are well known in the art.
(§2) Modulation of activity of an immune cell, such as a T-cell, a B cell or a NK cell can be measured by determining a baseline value for a parameter of interest (e.g., cytokine secretion). […] A reference value then is obtained for T-cell activation after contacting or administering said Cbl-b inhibitor. The reference value is compared to the baseline value in order to determine the amount of T-cell activation due to contact or administration of the Cbl-b inhibitor or composition thereof. […] Immune cell activation can be assessed by measuring biological markers of activation such as increased cytokine secretion, increased cell surface expression of activation markers (e.g., cell surface markers), or increased phosphorylation of proteins in a downstream signaling pathway. The fold over baseline value that indicates immune cell activation can be determined for the parameter being tested and the conditions under which the immune cell were treated. For example, for measuring T-cell activation, a baseline value can be obtained from T-cells stimulated with anti-CD3 antibody in combination with anti-CD28 antibody, wherein the cells are not incubated with a Cbl-b inhibitor. […] A positive response for immune cell activation can then be determined by the obtained reference value. […]

Assay [2] has as its system T-cell. The assay can be described thus: IL-2 secretion from T-cells stimulated with anti-CD3 antibody alone (Biological Example 2). It is filed as cell-based, human. Particulars: T-cell, fold change over baseline, primary human total T-cells, read-out: IL-2 secretion Anti-CD3 stimulation; for fold induction at 1 µM: 1 μM Cbl-b inhibitor; for fold induction at 8 µM: 8 μM Cbl-b inhibitor.
Description: as §1
(§3) Modulation of activity of an immune cell, such as a T-cell, a B cell or a NK cell can be measured by determining a baseline value for a parameter of interest (e.g., cytokine secretion). […] A reference value then is obtained for T-cell activation after contacting or administering said Cbl-b inhibitor. The reference value is compared to the baseline value in order to determine the amount of T-cell activation due to contact or administration of the Cbl-b inhibitor or composition thereof. […] Immune cell activation can be assessed by measuring biological markers of activation such as increased cytokine secretion, increased cell surface expression of activation markers (e.g., cell surface markers), or increased phosphorylation of proteins in a downstream signaling pathway. The fold over baseline value that indicates immune cell activation can be determined for the parameter being tested and the conditions under which the immune cell were treated. For example, for measuring T-cell activation, a baseline value can be obtained from T-cells stimulated with anti-CD3 antibody in combination with anti-CD28 antibody, wherein the cells are not incubated with a Cbl-b inhibitor. […] A positive response for immune cell activation can then be determined by the obtained reference value.
(§4) In some embodiments, a baseline value can be obtained from T-cells stimulated with anti-CD3 antibody alone, wherein the cells are not incubated with a Cbl-b inhibitor. In some embodiments, a positive response for T-cell activation as measured by cytokine secretion (e.g., IL-2 secretion) by T-cells stimulated with anti-CD3 antibody alone in the presence of a Cbl-b inhibitor is at least 0.1-fold over the baseline value for cytokine secretion (e.g., IL-2 secretion) obtained from T-cells stimulated with anti-CD3 antibody alone in the absence of a Cbl-b inhibitor. In some embodiments, a positive response for T-cell activation as measured by surface marker expression (e.g., CD25 surface marker staining) by T-cells stimulated with anti-CD3 antibody alone in the presence of a Cbl-b inhibitor is at least 0.6-fold over the baseline value for surface marker expression (e.g., CD25 surface marker staining) obtained from T-cells stimulated with anti-CD3 antibody alone in the absence of a Cbl-b inhibitor.

Assay [3] deals with T-cell. The experiment in a line: CD25 cell surface staining on T-cells co-stimulated with anti-CD3 and anti-CD28 antibody (Biological Example 2). Format: cell-based, human. Conditions: Homo sapiens, T-cell, fold change over baseline, primary human total T-cells, read-out: CD25 staining Anti-CD3/Anti-CD28 stimulation; for fold induction at 0.3 µM: 0.3 μM Cbl-b inhibitor; for fold induction at 1 µM: 1 μM Cbl-b inhibitor; for fold induction at 4 µM: 4 μM Cbl-b inhibitor.
Description: as §1, §2

In assay [4] the test system is T-cell. The assay can be described thus: CD25 cell surface staining on T-cells stimulated with anti-CD3 antibody alone (Biological Example 2). Conditions: T-cell, fold change over baseline, primary human total T-cells, read-out: CD25 staining Anti-CD3 stimulation; for fold induction at 1 µM: 1 μM Cbl-b inhibitor; for fold induction at 8 µM: 8 μM Cbl-b inhibitor. Format: cell-based, human.
Description: as §1, §3, §4

A further assay deals with Cbl-b (Homo sapiens, UniProt Q13191). The assay can be described thus: Cbl-b activity assay (Cbl-b inhibition assay), TR-FRET of Cbl-b interaction with UbcH5B-Ub. Conditions: assay buffer with 100 mM NaCl, 60 nM Src kinase; read-out: Cbl-b activity IC50. It is filed as biochemical. In outline: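 Compound-treated Cbl-b was incubated 1.5 h with Src kinase (60 nM final; 30 nM for asterisked values, which also used 50 mM instead of 100 mM NaCl), 1 mM ATP and 5 mM MgCl2. Binding to fluorescent Ub-loaded UbcH5B (C85K mutant) was then read by TR-FRET after 1 h more.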
Cbl-b, sequence (Q13191 36-427): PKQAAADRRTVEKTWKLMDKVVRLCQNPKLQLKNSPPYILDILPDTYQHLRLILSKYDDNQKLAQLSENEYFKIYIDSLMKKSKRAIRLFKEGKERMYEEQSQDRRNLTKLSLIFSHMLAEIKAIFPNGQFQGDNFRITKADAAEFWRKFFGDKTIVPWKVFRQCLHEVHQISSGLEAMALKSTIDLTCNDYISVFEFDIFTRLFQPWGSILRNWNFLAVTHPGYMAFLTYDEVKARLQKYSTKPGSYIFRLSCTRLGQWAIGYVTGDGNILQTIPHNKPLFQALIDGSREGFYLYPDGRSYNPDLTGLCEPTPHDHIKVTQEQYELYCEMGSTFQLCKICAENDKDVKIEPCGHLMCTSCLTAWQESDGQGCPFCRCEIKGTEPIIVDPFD

As to `C[C@H](Cc1nncn1C)c1cccc(NC(=O)c2ccn3nccc3n2)c1` [Compound 316, (R)-N-(3-(1-(4-Methyl-4H-1,2,4-triazol-3-yl)propan-2-yl)phenyl)pyrazolo[1,5-a]pyrimidine-5-carboxamide], the fold induction at 0.3 µM fell in the range of 1.01 to 2.5 in the assay with T-cell [1] and 1.01 to 1.3 in the assay with T-cell [3]. Also, the fold induction at 1 µM was 1.01 to 2.5 in the assay with T-cell [1], 0.051 to 0.1 with T-cell [2], 1.01 to 1.3 in the assay with T-cell [3] and 0.601 to 0.8 in the assay on T-cell [4]. Besides, the fold induction at 4 µM with T-cell [1] is 2.51 to 5; in the assay on T-cell [3] it was 1.01 to 1.3. The fold induction at 8 µM with T-cell [2] was 0.151 to 0.2; in the assay on T-cell [4] it was greater than 1. The IC50 at Cbl-b fell in the range of 301 to 1000 nM.
Consider `C[C@H](Cc1nncn1C)c1cccc(NC(=O)c2cc3cccn3cn2)c1` [Compound 317, (R)-N-(3-(1-(4-Methyl-4H-1,2,4-triazol-3-yl)propan-2-yl)phenyl)pyrrolo[1,2-c]pyrimidine-3-carboxamide], for which, in the assay on T-cell [1], the fold induction at 0.3 µM fell in the range of 1.01 to 2.5, the fold induction at 1 µM lay within 1.01 to 2.5 and the fold induction at 4 µM was in the range of 1.01 to 2.5. In addition, in the assay on T-cell [2], the fold induction at 1 µM is 0.051 to 0.1 and the fold induction at 8 µM fell in the range of 0.101 to 0.15. Also, in the assay with T-cell [3], the fold induction at 0.3 µM lay in the range of 1.01 to 1.3, the fold induction at 1 µM was 1.01 to 1.3 and the fold induction at 4 µM fell in the range of 1.01 to 1.3. Besides, in the assay with T-cell [4], the fold induction at 1 µM lay in the range of 0.601 to 0.8 and the fold induction at 8 µM is 0.801 to 1. The IC50 at Cbl-b lay within 301 to 1000 nM.
For the compound `C[C@H](Cc1nncn1C)c1cccc(NC(=O)c2cn3ccnc3cn2)c1` [Compound 318, (R)-N-(3-(1-(4-Methyl-4H-1,2,4-triazol-3-yl)propan-2-yl)phenyl)imidazo[1,2-a]pyrazine-6-carboxamide], the values for the fold induction at 0.3 µM with T-cell [1] and with T-cell [3] were 1.01 to 2.5 and less than 1, respectively. In addition, the fold induction at 1 µM in the assay with T-cell [1] lay in the range of 1.01 to 2.5; with T-cell [2], 0.051 to 0.1; in the assay with T-cell [3], 1.01 to 1.3; with T-cell [4] it was 0.601 to 0.8. In addition, the fold induction at 4 µM was 1.01 to 2.5 with T-cell [1] and 1.01 to 1.3 in the assay on T-cell [3]. Also, the fold induction at 8 µM with T-cell [2] lay within 0.101 to 0.15; in the assay with T-cell [4] it was 0.801 to 1. Besides, the IC50 at Cbl-b lay within 301 to 1000 nM.
As for `C[C@@H](Cc1nncn1C)c1cccc(NC(=O)c2cc(C3CC3)cc(C(F)(F)F)n2)c1` [Compound 322, (S)-4-Cyclopropyl-N-(3-(1-(4-methyl-4H-1,2,4-triazol-3-yl)propan-2-yl)phenyl)-6-(trifluoromethyl)picolinamide], in the assay on T-cell [1], the fold induction at 0.3 µM lay within 1.01 to 2.5, the fold induction at 1 µM is 1.01 to 2.5 and the fold induction at 4 µM fell in the range of 1.01 to 2.5. In addition, in the assay with T-cell [2], the fold induction at 1 µM fell in the range of 0.051 to 0.1 and the fold induction at 8 µM was 0.101 to 0.15. Further, in the assay on T-cell [3], the fold induction at 0.3 µM was 1.01 to 1.3, the fold induction at 1 µM fell in the range of 1.01 to 1.3 and the fold induction at 4 µM lay in the range of 1.01 to 1.3. Further, in the assay with T-cell [4], the fold induction at 1 µM fell in the range of 0.601 to 0.8 and the fold induction at 8 µM lay in the range of 0.601 to 0.8. For the same compound, at Cbl-b, the IC50 lay in the range of 301 to 1000 nM.
`C[C@H](Cc1nncn1C)c1cccc(NC(=O)c2cnn3cccnc23)c1` [Compound 324, (R)-N-(3-(1-(4-Methyl-4H-1,2,4-triazol-3-yl)propan-2-yl)phenyl)pyrazolo[1,5-a]pyrimidine-3-carboxamide]: in the assay on T-cell [1], the fold induction at 0.3 µM lay in the range of 1.01 to 2.5, the fold induction at 1 µM fell in the range of 1.01 to 2.5 and the fold induction at 4 µM lay within 1.01 to 2.5. For the same compound, in the assay on T-cell [2], the fold induction at 1 µM lay in the range of 0.051 to 0.1 and the fold induction at 8 µM was 0.051 to 0.1. For the same compound, in the assay with T-cell [3], the fold induction at 0.3 µM is less than 1, the fold induction at 1 µM was less than 1 and the fold induction at 4 µM is 1.01 to 1.3. Further, in the assay with T-cell [4], the fold induction at 1 µM was in the range of 0.601 to 0.8 and the fold induction at 8 µM was in the range of 0.601 to 0.8. Also, the IC50 on Cbl-b was 301 to 1000 nM.
On to `C[C@H](Cc1nncn1C)c1cc(NC2COC2)cc(N2Cc3c(cccc3C(F)(F)F)C2=O)c1` [Compound 350, 2-{3-[(2R)-1-(4-methyl-4H-1,2,4-triazol-3-yl)propan-2-yl]-5-[(oxetan-3-yl)amino]phenyl}-4-(trifluoromethyl)-2,3-dihydro-1H-isoindol-1-one], for which, in the assay on T-cell [1], the fold induction at 0.3 µM was less than 1, the fold induction at 1 µM lay within 1.01 to 2.5 and the fold induction at 4 µM lay within 1.01 to 2.5. For the same compound, in the assay on T-cell [2], the fold induction at 1 µM was 0.051 to 0.1 and the fold induction at 8 µM is 0.051 to 0.1. Further, in the assay with T-cell [3], the fold induction at 0.3 µM was in the range of 1.01 to 1.3, the fold induction at 1 µM lay in the range of 1.01 to 1.3 and the fold induction at 4 µM was in the range of 1.01 to 1.3. Moreover, in the assay on T-cell [4], the fold induction at 1 µM fell in the range of 0.601 to 0.8 and the fold induction at 8 µM fell in the range of 0.801 to 1. The IC50 on Cbl-b lay within 301 to 1000 nM.
Turning to `CC1OCC1Oc1cc([C@H](C)Cc2nncn2C)cc(N2Cc3c(cccc3C(F)(F)F)C2=O)n1` (stereo partly drawn) [Compound 355, 2-(4-((R)-1-(4-methyl-4H-1,2,4-triazol-3-yl)propan-2-yl)-6-((2-methyloxetan-3-yl)oxy)pyridin-2-yl)-4-(trifluoromethyl)isoindolin-1-one], the fold induction at 0.3 µM with T-cell [1] is 1.01 to 2.5; in the assay with T-cell [3], 1.01 to 1.3. Further, the fold induction at 1 µM is 1.01 to 2.5 in the assay with T-cell [1], 0.051 to 0.1 in the assay on T-cell [2], 1.01 to 1.3 in the assay on T-cell [3] and 0.601 to 0.8 in the assay with T-cell [4]. The fold induction at 4 µM lay in the range of 1.01 to 2.5 in the assay with T-cell [1] and 1.01 to 1.3 in the assay on T-cell [3]. Besides, the figures for the fold induction at 8 µM in the assay with T-cell [2] and in the assay with T-cell [4] were 0.101 to 0.15 and 0.601 to 0.8, respectively. Besides, the 50% inhibitory concentration (IC50) on Cbl-b was 301 to 1000 nM.
Take `C[C@H](Cc1nncn1C)c1cc(OCCO)nc(N2Cc3c(cccc3C(F)(F)F)C2=O)c1` [Compound 359, (R)-2-(6-(2-hydroxyethoxy)-4-(1-(4-methyl-4H-1,2,4-triazol-3-yl)propan-2-yl)pyridin-2-yl)-4-(trifluoromethyl)isoindolin-1-one]: the fold induction at 0.3 µM in the assay with T-cell [1] is 1.01 to 2.5; in the assay on T-cell [3], 1.01 to 1.3. Also, the fold induction at 1 µM was 1.01 to 2.5 with T-cell [1], 0.051 to 0.1 in the assay on T-cell [2], 1.01 to 1.3 with T-cell [3] and 0.601 to 0.8 in the assay on T-cell [4]. The values for the fold induction at 4 µM with T-cell [1] and in the assay with T-cell [3] were 2.51 to 5 and 1.31 to 1.5, respectively. For the same compound, the values for the fold induction at 8 µM with T-cell [2] and with T-cell [4] were greater than 0.201 and greater than 1, respectively. Moreover, on Cbl-b, the IC50 lay within 301 to 1000 nM.
